# Experimental data reported in publication PMC6251916, “CKD-506, a novel HDAC6-selective inhibitor, improves renal outcomes and survival in a mouse model of systemic lupus erythematosus” (Scientific Reports, 2018).
# Legend:
# Format in all cases: in vivo, mouse
# NZB/W F1 female mice [1] = assay: Murine SLE model: kidney histopathology (H&E, PAS, Masson trichrome); details: group CKD10
# From the text: Survival had been monitored until 42 weeks of age.
# Kidneys were harvested from mice at the end of the study (at 43–44 weeks of age). For light microscopy, the tissues were fixed in 10% neutral buffered formalin, embedded in paraffin wax, sectioned at a thickness of 5 μm and stained with H&E (BBC Biochemical, Mount Vernon, WA, USA). Periodic acid/Schiff (PAS stain kit, BBC Biochemical) staining and Masson trichrome (BBC Biochemical) staining were used for the detection of […] and fibrosis, respectively. Inflammatory cell infiltration and mesangial proliferation were scored on a 4-point scale as 0 (none), 1+ (mild), 2+ (moderate), 3+ (moderate to severe) and 4+ (severe).
# NZB/W F1 female mice [2] = assay: Murine SLE model: serum cytokine levels (Milliplex); details: for Serum GM-CSF / Serum IFN-γ / Serum IL-1α / Serum IL-1β / Serum IL-2 / Serum IL-4 / Serum IL-6 / Serum IL-10 / Serum IL-12(70) / Serum IL-15 / Serum IL-17 / Serum IL-22 / Serum IL-23 / Serum TGF-β1 / Serum TNF-α: at autopsy, mean ± SD
# Protocol: Serum samples were assayed using Milliplex® MAP Kits (Millipore) for granulocyte macrophage-colony stimulating factor (GM-CSF), interferon-γ (IFN-γ), interleukin-1α (IL-1α), IL-1β, IL-10, IL-12(p70), IL-15, IL-17a, IL-2, IL-4, IL-6, tumor necrosis factor α (TNF-α), transforming growth factor beta 1 (TGF-β1), IL-22, IL-23, IFN-inducible protein 10 (IP-10 (CXCL10)) and chemokine (C-C motif) ligand 2 (CCL2 (MCP-1)).
# NZB/W F1 female mice [3] = assay: Murine SLE model: cytokine levels in kidney extracts; details: at autopsy, mean ± SD
# Protocol: The kidneys were weighed and then transferred into dPBS (Welgene) supplemented with anti-protease Complete TM cocktail (Boehringer) using 12.5 μl of dPBS per milligram of wet weight tissue. Samples were homogenized twice using an Automill TK-AM5 freeze-crushing cell homogenizer (W 280 mm × D 390 mm × H 290 mm, Tokken Inc., Chiba, Japan) at 1,400 rpm for 90 seconds and then centrifuged at 16,000 × g for 15 min at 4 °C. The supernatants were collected and total protein concentrations were determined in the kidney extracts using a bicinchoninic acid (BCA) protein assay kit™ (Pierce). Total protein concentrations of the kidney extracts were adjusted to 2 mg/dl and used for the analysis of IFN-γ, IL-10, IL-15, IL-17, IL-1β, IL-4, IL-6, IP-10, MCP-1, CCL4, RANTES, TNF-α and sCD40L with Milliplex® MAP Kits (Millipore).
# [4] = group D: CKD-506 10 mg/kg/day, n = 10
# [5] = group E: CKD-506 30 mg/kg/day, n = 14
substance,measurement,setting,value
CKD-506,Masson's trichrome staining of kidneys,NZB/W F1 female mice [1],fibrosis
same,Periodic acid-Schiff (PAS) staining of kidneys,NZB/W F1 female mice [1],dilated tubules and casts
same,histopathological evaluation of the kidneys (H&E),NZB/W F1 female mice [1],Large numbers of inflammatory cell infiltrations and mesangial proliferation
same,serum levels of IP-10 vs vehicle,"NZB/W F1 female mice [2]; group CKD50, 36 weeks of age",significantly lower
same,Mean serum levels of CCL2 vs vehicle,"NZB/W F1 female mice [2]; group CKD50, 36 weeks of age, difference not statistically significant",lower
same,Serum GM-CSF,NZB/W F1 female mice [2]; [4],2.65 ± 8.38 pg/mL
same,Serum IFN-γ,NZB/W F1 female mice [2]; [4],1.06 ± 3.34 pg/mL
same,Serum IL-1α,NZB/W F1 female mice [2]; [4],371.96 ± 261.58 pg/mL
same,Serum IL-1β,NZB/W F1 female mice [2]; [4],1.27 ± 2.04 pg/mL
same,Serum IL-2,NZB/W F1 female mice [2]; [4],1.91 ± 5.61 pg/mL
same,Serum IL-4,NZB/W F1 female mice [2]; [4],1.74 ± 0.60 pg/mL
same,Serum IL-6,NZB/W F1 female mice [2]; [4],7.21 ± 7.41 pg/mL
same,Serum IL-10,NZB/W F1 female mice [2]; [4],25.00 ± 25.33 pg/mL
same,Serum IL-12(70),NZB/W F1 female mice [2]; [4],1.94 ± 3.69 pg/mL
same,Serum IL-15,NZB/W F1 female mice [2]; [4],184.36 ± 280.13 pg/mL
same,Serum IL-17,NZB/W F1 female mice [2]; [4],10.40 ± 12.20 pg/mL
same,Serum IL-22,NZB/W F1 female mice [2]; [4],27.05 ± 31.48 pg/mL
same,Serum IL-23,NZB/W F1 female mice [2]; [4],1.96 ± 6.20 pg/mL
same,Serum TGF-β1,NZB/W F1 female mice [2]; [4],73356.45 ± 22951.98 pg/mL
same,Serum TNF-α,NZB/W F1 female mice [2]; [4],7.91 ± 8.45 pg/mL
same,Serum GM-CSF,NZB/W F1 female mice [2]; [5],5.32 ± 15.20 pg/mL
same,Serum IFN-γ,NZB/W F1 female mice [2]; [5],6.60 ± 15.24 pg/mL
same,Serum IL-1α,NZB/W F1 female mice [2]; [5],458.40 ± 339.71 pg/mL
same,Serum IL-1β,NZB/W F1 female mice [2]; [5],74.66 ± 264.02 pg/mL
same,Serum IL-2,NZB/W F1 female mice [2]; [5],9.32 ± 17.79 pg/mL
same,Serum IL-4,NZB/W F1 female mice [2]; [5],8.60 ± 25.44 pg/mL
same,Serum IL-6,NZB/W F1 female mice [2]; [5],21.23 ± 50.94 pg/mL
same,Serum IL-10,NZB/W F1 female mice [2]; [5],56.55 ± 146.53 pg/mL
same,Serum IL-12(70),NZB/W F1 female mice [2]; [5],74.50 ± 238.09 pg/mL
same,Serum IL-15,NZB/W F1 female mice [2]; [5],162.41 ± 200.63 pg/mL
same,Serum IL-17,NZB/W F1 female mice [2]; [5],21.14 ± 54.60 pg/mL
same,Serum IL-22,NZB/W F1 female mice [2]; [5],13.00 ± 16.48 pg/mL
same,Serum IL-23,NZB/W F1 female mice [2]; [5],100.56 ± 376.25 pg/mL
same,Serum TGF-β1,NZB/W F1 female mice [2]; [5],58807.36 ± 25015.67 pg/mL
same,Serum TNF-α,NZB/W F1 female mice [2]; [5],16.25 ± 50.35 pg/mL
same,Serum GM-CSF,"NZB/W F1 female mice [2]; group F: 50 mg/kg/day, n = 14",1.89 ± 7.09 pg/mL
same,Serum IFN-γ,"NZB/W F1 female mice [2]; group F: 50 mg/kg/day, n = 14",2.07 ± 5.38 pg/mL
same,Serum IL-1α,"NZB/W F1 female mice [2]; group F: 50 mg/kg/day, n = 14",629.16 ± 480.71 pg/mL
same,Serum IL-1β,"NZB/W F1 female mice [2]; group F: 50 mg/kg/day, n = 14",3.86 ± 7.83 pg/mL
same,Serum IL-2,"NZB/W F1 female mice [2]; group F: 50 mg/kg/day, n = 14",4.09 ± 9.84 pg/mL
same,Serum IL-4,"NZB/W F1 female mice [2]; group F: 50 mg/kg/day, n = 14",3.70 ± 6.48 pg/mL
same,Serum IL-6,"NZB/W F1 female mice [2]; group F: 50 mg/kg/day, n = 14",5.69 ± 8.94 pg/mL
same,Serum IL-10,"NZB/W F1 female mice [2]; group F: 50 mg/kg/day, n = 14",8.31 ± 14.15 pg/mL
same,Serum IL-12(70),"NZB/W F1 female mice [2]; group F: 50 mg/kg/day, n = 14",15.62 ± 45.25 pg/mL
same,Serum IL-15,"NZB/W F1 female mice [2]; group F: 50 mg/kg/day, n = 14",26.24 ± 28.73 pg/mL
same,Serum IL-17,"NZB/W F1 female mice [2]; group F: 50 mg/kg/day, n = 14",4.82 ± 7.15 pg/mL
same,Serum IL-22,"NZB/W F1 female mice [2]; group F: 50 mg/kg/day, n = 14",6.37 ± 5.56 pg/mL
same,Serum IL-23,"NZB/W F1 female mice [2]; group F: 50 mg/kg/day, n = 14",41.34 ± 154.68 pg/mL
same,Serum TGF-β1,"NZB/W F1 female mice [2]; group F: 50 mg/kg/day, n = 14",73110.92 ± 17325.08 pg/mL
same,Serum TNF-α,"NZB/W F1 female mice [2]; group F: 50 mg/kg/day, n = 14",1.24 ± 2.60 pg/mL
same,Kidney extract CCL2,NZB/W F1 female mice [3]; [4],61.30 ± 70.39 pg/mL
same,Kidney extract CCL4,NZB/W F1 female mice [3]; [4],12.77 ± 23.90 pg/mL
same,Kidney extract IFN-γ,NZB/W F1 female mice [3]; [4],17.46 ± 15.04 pg/mL
same,Kidney extract IL-1β,NZB/W F1 female mice [3]; [4],2.09 ± 2.68 pg/mL
same,Kidney extract IL-4,NZB/W F1 female mice [3]; [4],0.01 ± 0.02 pg/mL
same,Kidney extract IL-6,NZB/W F1 female mice [3]; [4],3.99 ± 2.72 pg/mL
same,Kidney extract IL-10,NZB/W F1 female mice [3]; [4],9.43 ± 4.36 pg/mL
same,Kidney extract IL-15,NZB/W F1 female mice [3]; [4],34.25 ± 21.24 pg/mL
same,Kidney extract IP-10,NZB/W F1 female mice [3]; [4],98.47 ± 44.61 pg/mL
same,Kidney extract RANTES,NZB/W F1 female mice [3]; [4],31.17 ± 24.93 pg/mL
same,Kidney extract TNF-α,NZB/W F1 female mice [3]; [4],Not detected
same,Kidney extract CCL2,NZB/W F1 female mice [3]; [5],21.90 ± 17.10 pg/mL
same,Kidney extract CCL4,NZB/W F1 female mice [3]; [5],1.70 ± 4.61 pg/mL
same,Kidney extract IFN-γ,NZB/W F1 female mice [3]; [5],13.12 ± 4.85 pg/mL
same,Kidney extract IL-1β,NZB/W F1 female mice [3]; [5],1.18 ± 2.19 pg/mL
same,Kidney extract IL-4,NZB/W F1 female mice [3]; [5],0.02 ± 0.05 pg/mL
same,Kidney extract IL-6,NZB/W F1 female mice [3]; [5],1.65 ± 0.82 pg/mL
same,Kidney extract IL-10,NZB/W F1 female mice [3]; [5],9.62 ± 2.42 pg/mL
same,Kidney extract IL-15,NZB/W F1 female mice [3]; [5],42.42 ± 16.89 pg/mL
same,Kidney extract IP-10,NZB/W F1 female mice [3]; [5],63.40 ± 21.06 pg/mL
same,Kidney extract RANTES,NZB/W F1 female mice [3]; [5],9.30 ± 7.86 pg/mL
same,Kidney extract TNF-α,NZB/W F1 female mice [3]; [5],Not detected
same,Kidney extract CCL2,"NZB/W F1 female mice [3]; group F: 50 mg/kg/day, n = 14",3.15 ± 6.10 pg/mL
same,Kidney extract CCL4,"NZB/W F1 female mice [3]; group F: 50 mg/kg/day, n = 14",Not detected*
same,Kidney extract IFN-γ,"NZB/W F1 female mice [3]; group F: 50 mg/kg/day, n = 14",6.77 ± 4.06 pg/mL
same,Kidney extract IL-1β,"NZB/W F1 female mice [3]; group F: 50 mg/kg/day, n = 14",0.26 ± 0.60 pg/mL
same,Kidney extract IL-4,"NZB/W F1 female mice [3]; group F: 50 mg/kg/day, n = 14",Not detected*
same,Kidney extract IL-6,"NZB/W F1 female mice [3]; group F: 50 mg/kg/day, n = 14",0.43 ± 0.45 pg/mL
same,Kidney extract IL-10,"NZB/W F1 female mice [3]; group F: 50 mg/kg/day, n = 14",7.60 ± 2.08 pg/mL
same,Kidney extract IL-15,"NZB/W F1 female mice [3]; group F: 50 mg/kg/day, n = 14",32.82 ± 11.63 pg/mL
same,Kidney extract IP-10,"NZB/W F1 female mice [3]; group F: 50 mg/kg/day, n = 14",43.90 ± 14.50 pg/mL
same,Kidney extract RANTES,"NZB/W F1 female mice [3]; group F: 50 mg/kg/day, n = 14",3.80 ± 2.17 pg/mL
same,Kidney extract TNF-α,"NZB/W F1 female mice [3]; group F: 50 mg/kg/day, n = 14",Not detected
